Test results as given in publication PMC9981206 (Cancer Research Communications, 2022).

Key:
B16-F10 tumors = experiment: B16-F10 mouse melanoma model
Method: The experiment using B16-F10 tumors was carried out as previously described ([39]) at Reaction Biology. […] Next, the mice were sacrificed, approximately 8 hours after last dosing. Protein and RNA extracts were prepared from 8 tumors within each treatment group.

[1] = 28-day oral repeated dose toxicity study; assay type: in vivo, mice
Method: Body weight and food consumption were measured thrice weekly. For the experiment using 10 mg/kg oral–twice daily dosing, blood was collected at the end of the experiment and hematologic and clinical biochemistry analyses were performed at IDEXX according to their standard protocols. Duodenum, jejunum, ileum, colon–rectum, lymph nodes, pancreas, heart, kidney, liver, spleen, lung, prostate, and testis were collected, formalin-fixed (10%), paraffin-embedded, stained with hematoxylin and eosin (H&E), and imaged as previously described ([39]). Staining of ileums using immunofluorescence was performed as previously described ([29, 39]). […] DAPI nuclear dye [(340 nm), 1 μg/μL, D9542, Sigma Aldrich] was added to the final washing solution. […] Imaging was performed using confocal microscopy as described previously ([39]). All animal experiments were approved by local animal experiment authorities (ethics committee of the Chinese Association for Laboratory Animal Sciences, German Centre for the Protection of Laboratory Animals, and Norwegian Food Safety Authority), and were carried out in compliance with FELASA guidelines and recommendations.

[2] = 10 mg/kg oral twice daily, immunoblot
[3] = 10 mg/kg oral twice daily, 28 days, CD-1 mice
[4] = 10 mg/kg oral twice daily, 28 days, CD-1 mice, clinical biochemistry
[5] = 10 mg/kg oral twice daily, 28 days, CD-1 mice, hematology

CCOc1ccc(-c2nnc([C@H]3C[C@H](NC(=O)c4cccc5nccnc45)C3)n2-c2ccccc2F)nc1 [OM-153]
AXIN1 protein in tumors (B16-F10 tumors; [2]): significant stabilization | β-catenin in tumors (B16-F10 tumors; [2]): insignificant downregulation | transcription of the target gene Axin2 in tumors (B16-F10 tumors; 10 mg/kg oral twice daily, real-time qRT-PCR): significantly decreased | tumor end volume inhibition compared with the vehicle control (B16-F10 tumors; 0.1–10 mg/kg OM-153 oral twice daily in combination with anti–PD-1 (10 mg/kg i.p. day 6, 9, 12)): 51%–65% | body weights (B16-F10 tumors; any of the treatment groups, day 6 through 20): No alterations in body weights | antitumor effect, monotherapy controls (B16-F10 tumors; monotherapy, 10 mg/kg): did not exert any significant antitumor effects | clinical signs, body weight, food consumption [1, 3]: no clinical signs, body weight loss, or reduced food consumption were observed | histopathology of other organs [1, 3]: No atypical histopathologic changes | overall intestinal architecture [1, 3]: intact | expression of the ISC marker and WNT/β-catenin signaling target gene Lgr5 in ileum ([1]; 10 mg/kg oral twice daily, 28 days, CD-1 mice, RNAscope): reduced | AST, ALT and GLDH levels [1, 4]: insignificant alteration | magnesium, potassium, and triglycerides [1, 4]: significant decreases | erythrocytes and hemoglobin [1, 5]: moderate but significant reduction | leukocytes and reticulocytes [1, 5]: tendency toward reduced | histopathology of the other organs ([1]; 100 mg/kg oral twice daily, C57BL/6J mice): No abnormal histopathologic changes | small intestine histopathology ([1]; 100 mg/kg oral twice daily, C57BL/6J mice, 2 out of three mice): loss of villi height, width, crypt, and as well as surface epithelium, accompanied by inflammation | clinical observation and body weight ([1]; 100 mg/kg oral twice daily, C57BL/6J mice, euthanized on day 7): reduced activity and body weight loss in 3 of 4 mice | kidney histopathology ([1]; 100 mg/kg oral twice daily, C57BL/6J mice, same mice as intestinal damage): signs of acute tubular damage in the kidney
